From paper PMC11274883, “Anticancer Effect of Pt^[sequence], Pt^II5MESS, Pt^II56MESS and Their Platinum(IV)-Dihydroxy Derivatives against Triple-Negative Breast Cancer and Cisplatin-Resistant Colorectal Cancer” (Cancers, 2024)

Columns and labels:
Assay type in all cases: cell-based
MDA−MB−231 cells [1] = assay: DCFDA cellular ROS detection assay; details: complexes at IC50, TBHP 20 µM
Outline: (§1)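 Cells seeded at 2500 cells/well overnight, then loaded with 25 µM DCFH-DA for 45 min. DCF fluorescence (ex/em 485/535 nm, RFU) read at multiple time points; 20 µM TBHP served as positive control. Three independent experiments in triplicate.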

HT29 cells [2] = assay: DCFDA cellular ROS detection assay; details: complexes at IC50, TBHP 20 µM
Outline: as §1

MDA−MB−231 cells [3] = assay: Western blot protein expression; details: MDA−MB−231, IC50, 72 h
Outline: (§2)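 Cells were lysed in RIPA buffer with orthovanadate, and 20 µg protein was run on SDS-PAGE, transferred to PVDF and probed for proliferation, apoptosis, microtubule and autophagy markers. ECL band intensities were normalised to GAPDH and then to untreated control. Three independent experiments were run per marker.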

HT29 cells [4] = assay: Western blot protein expression; details: HT29, IC50, 72 h
Outline: as §2

MDA−MB−231 cells [5] = assay: TMRE mitochondrial membrane potential assay; details: complexes at IC50, FCCP 20 µM
Outline: (§3)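 Cells treated with each complex at its IC50 concentration for 24, 48 or 72 h, then stained with 1 µM TMRE for 30 min and washed before fluorescence scanning. Three independent experiments in triplicate.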

HT29 cells [6] = assay: TMRE mitochondrial membrane potential assay; details: complexes at IC50, FCCP 20 µM
Outline: as §3

[7] = representative blot Figure S30G
[8] = representative blot Figure S30H

Compound: Cc1cc2cccnc2c2ncccc12.N[C@H]1CCCC[C@@H]1N.O=[N+]([O-])[O-].O=[N+]([O-])[O-].[Pt+2] [Pt^II5MESS, [Pt(5-methyl-1,10-phenanthroline)(1S,2S-diaminocyclohexane)](NO3)2]
- ROS production (MDA−MB−231 cells [1]; MDA−MB−231, 24 h): 316.23 RFU
- ROS production (MDA−MB−231 cells [1]; MDA−MB−231, 48 h): 372.49 RFU
- ROS production (MDA−MB−231 cells [1]; MDA−MB−231, 72 h): 399.97 RFU
- ROS production (HT29 cells [2]; HT29, 24 h): 278.00 RFU
- ROS production (HT29 cells [2]; HT29, 48 h): 362.89 RFU
- ROS production (HT29 cells [2]; HT29, 72 h): 404.44 RFU
- β-actin/GAPDH normalized to control (1) (MDA−MB−231 cells [3]; representative blot Figure S24A): 0.7082
- β-tubulin/GAPDH normalized to control (1) (MDA−MB−231 cells [3]; representative blot Figure S24B): 0.4163
- α-tubulin/GAPDH normalized to control (1) (MDA−MB−231 cells [3]; representative blot Figure S24C): 0.6399
- p-AKT/AKT/GAPDH normalized to control (1) (MDA−MB−231 cells [3]; representative blot Figure S25A): 0.5388
- p-ERK/ERK/GAPDH normalized to control (1) (MDA−MB−231 cells [3]; representative blot Figure S25B): 0.5947
- p53/GAPDH normalized to control (1) (MDA−MB−231 cells [3]; representative blot Figure S25C): 0.7809
- p21/GAPDH normalized to control (1) (MDA−MB−231 cells [3]; representative blot Figure S25D): 2.478
- Bax/GAPDH normalized to control (1) (MDA−MB−231 cells [3]; representative blot Figure S26A): 1.886
- Bcl2/GAPDH normalized to control (1) (MDA−MB−231 cells [3]; representative blot Figure S26B): 0.5074
- Cytochrome C/GAPDH normalized to control (1) (MDA−MB−231 cells [3]; representative blot Figure S26C): 1.513
- Procaspase 8/GAPDH normalized to control (1) (MDA−MB−231 cells [3]; representative blot Figure S26D): 0.5099
- Cleaved BID/GAPDH normalized to control (1) (MDA−MB−231 cells [3]; representative blot Figure S26E): 14.29
- Procaspase 9/GAPDH normalized to control (1) (MDA−MB−231 cells [3]; representative blot Figure S26F): 0.3101
- Procaspase 3/GAPDH normalized to control (1) (MDA−MB−231 cells [3]; representative blot Figure S26G): 0.5405
- PARP-1/GAPDH normalized to control (1) (MDA−MB−231 cells [3]; representative blot Figure S26H): 0.7693
- Beclin1/GAPDH normalized to control (1) (MDA−MB−231 cells [3]; representative blot Figure S27A): 2.588
- ATG5/GAPDH normalized to control (1) (MDA−MB−231 cells [3]; representative blot Figure S27B): 0.5948
- ATG16L1/GAPDH normalized to control (1) (MDA−MB−231 cells [3]; representative blot Figure S27C): 0.4742
- ATG9A/GAPDH normalized to control (1) (MDA−MB−231 cells [3]; representative blot Figure S27D): 0.2882
- ATG4B/GAPDH normalized to control (1) (MDA−MB−231 cells [3]; representative blot Figure S27E): 1.839
- LC3B/GAPDH normalized to control (1) (MDA−MB−231 cells [3]; representative blot Figure S27F): 0.9366
- β-actin/GAPDH normalized to control (1) (HT29 cells [4]; representative blot Figure S28A): 0.2979
- β-tubulin/GAPDH normalized to control (1) (HT29 cells [4]; representative blot Figure S28B): 0.1238
- α-tubulin/GAPDH normalized to control (1) (HT29 cells [4]; representative blot Figure S28C): 0.06789
- p-AKT/AKT/GAPDH normalized to control (1) (HT29 cells [4]; representative blot Figure S29A): 0.07338
- p-ERK/ERK/GAPDH normalized to control (1) (HT29 cells [4]; representative blot Figure S29B): 0.7076
- p53/GAPDH normalized to control (1) (HT29 cells [4]; representative blot Figure S29C): 1.275
- p21/GAPDH normalized to control (1) (HT29 cells [4]; representative blot Figure S29D): 1.147
- Bax/GAPDH normalized to control (1) (HT29 cells [4]; representative blot Figure S30A): 1.624
- Bcl2/GAPDH normalized to control (1) (HT29 cells [4]; representative blot Figure S30B): 0.09591
- Cyt C/GAPDH normalized to control (1) (HT29 cells [4]; representative blot Figure S30C): 3.741
- Procaspase 8/GAPDH normalized to control (1) (HT29 cells [4]; representative blot Figure S30D): 0.2934
- Cleaved BID/GAPDH normalized to control (1) (HT29 cells [4]; representative blot Figure S30E): 1.69
- Procaspase 9/GAPDH normalized to control (1) (HT29 cells [4]; representative blot Figure S30F): 0.1393
- Cleaved caspase 3/GAPDH normalized to control (1) (HT29 cells [4]; [7]): 10.88
- Procaspase 3/GAPDH normalized to control (1) (HT29 cells [4]; [7]): 0.7678
- Cleaved PARP-1/GAPDH normalized to control (1) (HT29 cells [4]; [8]): 11.42
- PARP-1/GAPDH normalized to control (1) (HT29 cells [4]; [8]): 0.2554
- Beclin1/GAPDH normalized to control (1) (HT29 cells [4]; representative blot Figure S31A): 3.11
- ATG5/GAPDH normalized to control (1) (HT29 cells [4]; representative blot Figure S31B): 0.9969
- ATG16L1/GAPDH normalized to control (1) (HT29 cells [4]; representative blot Figure S31C): 1.285
- ATG9A/GAPDH normalized to control (1) (HT29 cells [4]; representative blot Figure S31D): 0.4486
- ATG4B/GAPDH normalized to control (1) (HT29 cells [4]; representative blot Figure S31E): 0.7306
- LC3B/GAPDH normalized to control (1) (HT29 cells [4]; representative blot Figure S31F): 1.207
- MtMp (mitochondrial membrane potential) (MDA−MB−231 cells [5]; MDA−MB−231, 24 h): 230.62 RFU
- MtMp (mitochondrial membrane potential) (MDA−MB−231 cells [5]; MDA−MB−231, 48 h): 189.85 RFU
- MtMp (mitochondrial membrane potential) (MDA−MB−231 cells [5]; MDA−MB−231, 72 h): 150.71 RFU
- MtMp (mitochondrial membrane potential) (HT29 cells [6]; HT29, 24 h): 253.81 RFU
- MtMp (mitochondrial membrane potential) (HT29 cells [6]; HT29, 48 h): 211.88 RFU
- MtMp (mitochondrial membrane potential) (HT29 cells [6]; HT29, 72 h): 143.93 RFU
